# Laboratory results from patent publication US20100204460A1, “NATURAL BRASSINOSTEROIDS FOR USE FOR TREATING HYPERPROLIFERATION, TREATING PROLIFERATIVE DISEASES AND REDUCING ADVERSE EFFECTS OF STEROID DYSFUNCTION IN MAMMALS, PHARMACEUTICAL COMPOSITION AND ITS USE” (priority 2007, published 2010).
# Tests used:
# Assay type in all cases: cell-based
# [1] = tested on: T-lymphoblastic leukaemia cell line CEM; test: Calcein AM cytotoxicity assay, CEM; conditions: CEM; six 4-fold dilutions, exposure 72 h (b71 says 96 h); mean ± SD; read-out: IC50 assessed by Calcein AM assay of surviving cells
# [2] = tested on: multiple myeloma cell line RPMI 8226; test: Calcein AM cytotoxicity assay, RPMI 8226; conditions: RPMI 8226; exposure 72 h (b71 says 96 h); mean ± SD; read-out: IC50 assessed by Calcein AM assay of surviving cells
# MCF-7 cells [3] = test: Cell cycle distribution by flow cytometry, MCF-7; conditions: IC50, 24 h; for Cell cycle distribution S: control 14%; for Apoptosis subG1 fraction: control 17%; for Cell cycle distribution G2/M: control 26%; for Cell cycle distribution G1: control 60%
# Excerpt: (§1) In the MCF-7 breast cancer cell line that has been the most widely studied experimental cell system, the typical growth inhibitory response to antiestrogens is decrease in the proportion of cells synthesising DNA (S phase) after antiestrogen treatment. This decrease in S phase coincides with an increase in the proportion of cells in G0/G1 phase. The activity of the androgen receptor (AR) is also regulated by alterations in cell signaling. There has been reported ligand independent activation of AR in prostate cancer cells by different growth factors. As the AR can be activated in the absence of hormone, it appears that the conditions may be more restricted than those observed for ER. Use of physiologic doses of ligand (dihydrotestosterone, DHT) is of importance as the LNCaP cells proliferate only at DHT concentration of 10^−9 M or lower. […] In contrast to proliferation, transactivation of AR specific target genes (e.g. PSA) continues to increase with DHT doses of 10^−10 M and higher. It might be accepted for estrogen or androgen receptors as stronger cytotoxic activities of brassinosteroids 9 or 6 on hormone-sensitive (MCF-7, LNCaP) compared to hormone-insensitive (MDA-MB-468, DU-145) cell lines were found. Therefore we explored the possibility of cell cycle perturbation by BRs in different cancer cell lines. Flow cytometry was used to evaluate the number of cells in the particular phases of the cell cycle, including subG1 peak detection. Control and treated cells were washed twice with cold PBS and centrifuged at 360×g for 10 min at 4° C., and fixed with chilled ethanol (70%; v/v) by low-speeded vortexing. For detection of DNA content analysis, propidium iodide staining was used. The cells were analyzed using a FACSCalibur flow cytometer (BD Biosciences, San Jose, Calif.).
# (§2) Flow-cytometric detection of apoptosis. Several studies have declared that the induction of apoptosis may be cell cycle-dependent. Therefore, in our next series of experiments, we tested if brassinosteroids 9 or 6 cause apoptosis of the breast and prostate cancer cells via cell cycle blockage. From this reason we carried out DNA cell cycle analysis by flow cytometry based on detection of endonucleolytic DNA degradation that results in extraction of low molecular weight DNA from the cells. […] The subG1 peak containing apoptotic bodies was however not observed in MCF-7 cells.
# LNCaP cells = test: Cell cycle distribution by flow cytometry, LNCaP; conditions: IC50, 24 h; for Apoptosis subG1 fraction: control 8%; for Cell cycle distribution S: control 14%; for Cell cycle distribution G2/M: control 16%; for Cell cycle distribution G1: control 70%
# Excerpt: as §1, §2
# MCF-7 cells [4] = test: TUNEL detection of apoptosis, MCF-7; conditions: IC50 concentration
# Description: (§3) TdT-Mediated dUTP nick end labeling (TUNEL) detection of apoptosis index. For detection of apoptotic cells, the TUNEL assay was used. […] After period of treatment, the cells were washed with PBS and fixed on the slides with cold acetone-methanol (1:1, v/v) for 10 min. Apoptosis-induced nuclear DNA fragmentation was detected by terminal deoxynucleotidyl transferase-mediated UTP nick end labeling (TUNEL) technique according to the producer protocol (In Situ Cell Death Detection Kit; Roche Diagnostics, Mannheim, Germany). The cells were then washed three times in PBS and stained with 4′-6-diamidino-2-phenylindole (DAPI; 50 μg/ml; Sigma, St. Louis, Mo., USA) for 10 min in the dark. The coverslips with cells were washed in deionized water and mounted on glass slides, using the hydrophilic medium Mowiol (Calbiochem, Fremont, Calif., USA) in glycerol-PBS (1:3, v/v) for fluorescence. Cells were visualized using fluorescence microscopy and compared with control cells. TUNEL staining achieved to confirm apoptosis in all cell lines.
# MDA-MB-468 cells = test: TUNEL detection of apoptosis, MDA-MB-468; conditions: IC50 concentration, control 0.0 ± 0.0
# Description: as §3
SMILES,IC50 [1],IC50 [2],Cell cycle distribution S (MCF-7 cells [3]),Apoptosis subG1 fraction (MCF-7 cells [3]),Cell cycle distribution G2/M (MCF-7 cells [3]),Cell cycle distribution G1 (MCF-7 cells [3]),Apoptosis subG1 fraction (LNCaP cells),Cell cycle distribution S (LNCaP cells),Cell cycle distribution G2/M (LNCaP cells),Cell cycle distribution G1 (LNCaP cells),"percentage of TUNEL positive cells (MCF-7 cells [4]; 6 h, control 0.0 ± 0.0)","percentage of TUNEL positive cells (MCF-7 cells [4]; 12 h, control 0.0 ± 0.0)","percentage of TUNEL positive cells (MCF-7 cells [4]; 24 h, control 0.3 ± 0.6)",percentage of TUNEL positive cells (MDA-MB-468 cells; 6 h),percentage of TUNEL positive cells (MDA-MB-468 cells; 12 h),percentage of TUNEL positive cells (MDA-MB-468 cells; 24 h)
"CC(C)[C@@H](C)[C@@H](O)[C@H](O)[C@@H](C)[C@H]1CC[C@H]2[C@@H]3COC(=O)[C@H]4C[C@H](O)[C@H](O)C[C@]4(C)[C@H]3CC[C@]12C [Brassinosteroid 6, 24-Epibrassinolide]",44 ± 2.2 µM,> 50 µM,7%,13%,12%,81%,47%,5%,9%,86%,2.7 ± 1.2 %,8.3 ± 3.1 %,11.7 ± 3.8 %,4.7 ± 0.6 %,16.7 ± 4.7 %,18.3 ± 3.0 %
"CC[C@@H](C(C)C)[C@@H](O)[C@H](O)[C@@H](C)[C@H]1CC[C@H]2[C@@H]3CC(=O)[C@H]4C[C@H](O)[C@H](O)C[C@]4(C)[C@H]3CC[C@]12C [Brassinosteroid 9, 28-Homocastasterone]",13 µM,26 ± 1.4 µM,11%,15%,9%,80%,18%,2%,4%,94%,10.6 ± 1.5 %,13.7 ± 3.8 %,13.7 ± 2.6 %,1.7 ± 0.6%,2.3 ± 0.6%,4.3 ± 0.6 %
